Among the data in US10774083B2, “Heterocyclic amide compound” (TAKEDA PHARMACEUTICAL COMPANY LIMITED, priority 2016, dated 2020) are inhibition values, retold here.

Assay [1] addresses T1, human PRS protein (His-Avi-hEPRS (998-1512)) (Homo sapiens, UniProt P07814).
T1 construct: to construct His-Avi-hEPRS (998-1512) expression plasmid; His tag (N); Avi tag (N); TEV cleavage site (ENLYFQG, then S; inferred from the forward primer hEPRS-TEV-NheF) (N); made in house; host or cells: E. coli BL21(DE3)
T1 sequence (P07814 998-1512 limits assumed): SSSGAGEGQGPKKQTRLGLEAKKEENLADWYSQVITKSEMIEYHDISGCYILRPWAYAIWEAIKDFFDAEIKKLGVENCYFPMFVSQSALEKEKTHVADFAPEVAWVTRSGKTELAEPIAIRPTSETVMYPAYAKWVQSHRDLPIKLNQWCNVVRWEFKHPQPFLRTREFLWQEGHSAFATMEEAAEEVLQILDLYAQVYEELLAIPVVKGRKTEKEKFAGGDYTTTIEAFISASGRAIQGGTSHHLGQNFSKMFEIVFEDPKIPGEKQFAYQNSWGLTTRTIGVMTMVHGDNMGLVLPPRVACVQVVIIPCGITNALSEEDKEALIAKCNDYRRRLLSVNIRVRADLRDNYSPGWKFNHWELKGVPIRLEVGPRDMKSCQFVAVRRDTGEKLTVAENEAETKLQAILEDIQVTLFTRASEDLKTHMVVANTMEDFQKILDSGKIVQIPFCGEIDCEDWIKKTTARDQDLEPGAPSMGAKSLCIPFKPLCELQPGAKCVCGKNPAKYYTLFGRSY
Briefly: PRS inhibitory activity ([32P]pyrophosphate exchange enzyme assay). The class given is biochemical. The settings on record: 300 nM test compound; read-out: inhibitory rate (%) of PRS. In a few lines:
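Compound was pre-incubated 60 min with 40 nM His-Avi-hEPRS (998-1512) (stock, E. coli-expressed) in Tris pH 7.5/KCl/DTT/Tween/MgCl2. Reaction began with substrate mix containing 300 μM ATP, 160 μM L-proline, 400 μM [32P]pyrophosphate (stock levels) and ran 30 min at room temperature. Charcoal-bound radioactivity was counted; inhibition was relative to no-reaction control.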

The subject of assay [2] is human ovarian cancer cells A2780. In words: proliferation inhibitory activity against human ovarian cancer cell A2780 (CellTiter-Glo). The class given is cell-based. The settings on record: A2780, 72 h, 1 μM test compound, 3 days of culture, read-out: proliferation inhibitory rate (%) of A2780 cells. On the procedure: The proliferation inhibitory activity of the compound of the present invention against human ovarian cancer cell A2780 was evaluated by the following method.
Human ovarian cancer cells A2780 were seeded in a 384 well culture plate at 1000 cells in 30 μL of medium per well by using RPMI-1640 medium (Wako Pure Chemical Industries, Ltd.) containing 10% fetal bovine serum and penicillin/streptomycin. The next day, 10 μL of RPMI-1640 medium containing the test compound was added to the cells. After 3 days of culture, 20 μL of CellTiter-Glo Luminescent Cell Viability Assay solution (Promega) was added. The luminescence signal was measured using EnVision (PerkinElmer) and the inhibitory rate (%) of the test compound was calculated with a well free of seeding of cell as 100% inhibition.

For the compound `Cn1cc(-c2cc(F)cc(CNC(=O)c3nccc4nc(C5CCOC5)[nH]c34)c2)cn1` (stereo not shown) [Example 103, N-(3-fluoro-5-(1-methyl-1H-pyrazol-4-yl)benzyl)-2-(tetrahydrofuran-3-yl)-3H-imidazo[4,5-c]pyridine-4-carboxamide], in assay [1], the inhibition at 0.3 µM was 99%. In assay [2], the inhibition at 1 µM was 73%.
Consider `Cn1cc(-c2cc(F)cc(CNC(=O)c3ncnc4nc(C5CCCC5)[nH]c34)c2)cn1` [Example 2, 8-cyclopentyl-N-(3-fluoro-5-(1-methyl-1H-pyrazol-4-yl)benzyl)-7H-purine-6-carboxamide], for which, in assay [1], the inhibition at 0.3 µM stood at 101%. In assay [2], the inhibition at 1 µM stood at 97%.
`Cn1cc(-c2cc(F)cc(CNC(=O)c3nccc4nc(CC5CCCC5)[nH]c34)c2)cn1` [Example 104, 2-(cyclopentylmethyl)-N-(3-fluoro-5-(1-methyl-1H-pyrazol-4-yl)benzyl)-3H-imidazo[4,5-c]pyridine-4-carboxamide]: the inhibition at 0.3 µM in assay [1] came to 98%. Further, the inhibition at 1 µM in assay [2] was found to be 68%.
For `CC(C)n1cc(-c2cc(F)cc(CNC(=O)c3ncnc4nc(C5CCCC5)[nH]c34)c2)cn1` [Example 11, 8-cyclopentyl-N-(3-fluoro-5-(1-isopropyl-1H-pyrazol-4-yl)benzyl)-7H-purine-6-carboxamide], in that order: 102% and 95%.
On to `Cc1cc(N2C(=O)[C@](C#N)(C3CC3)C[C@@H]2C)cc(C(=O)NCc2cc(F)cc(-c3cnn(C)c3)c2)n1` [Example 221, 4-((3S,5S)-3-cyano-3-cyclopropyl-5-methyl-2-oxopyrrolidin-1-yl)-N-(3-fluoro-5-(1-methyl-1H-pyrazol-4-yl)benzyl)-6-methylpyridine-2-carboxamide], for which the inhibition at 0.3 µM in assay [1] was 99%. Further, the inhibition at 1 µM in assay [2] stood at 64%.
For `Cc1cn(-c2cc(F)cc(CNC(=O)c3cc(N4CC[C@@](C#N)(C5CC5)C4=O)cc(C)n3)c2)cn1` [Example 228, 4-((3S)-3-cyano-3-cyclopropyl-2-oxopyrrolidin-1-yl)-N-(3-fluoro-5-(4-methyl-1H-imidazol-1-yl)benzyl)-6-methylpyridine-2-carboxamide], in that order: 100% and 88%.
For `Cn1cc2c(CNC(=O)c3nccc4nc(C5CCCC5)[nH]c34)cccc2n1` [Example 94, 2-cyclopentyl-N-((2-methyl-2H-indazol-4-yl)methyl)-3H-imidazo[4,5-c]pyridine-4-carboxamide], in that order: 97% and 64%.
The like results for `Cn1cc(-c2cccc(CNC(=O)c3nccc4nc(C5CCCC5)[nH]c34)c2)cn1` [Example 84, 2-cyclopentyl-N-(3-(1-methyl-1H-pyrazol-4-yl)benzyl)-3H-imidazo[4,5-c]pyridine-4-carboxamide] were, in that order, 100% and 97%.
`Cc1cc(N2CC[C@@](C#N)(C3CC3)C2=O)cc(C(=O)NCc2cc(F)cc(-c3cnn(C4CC4)c3)c2)n1` [Example 168, 4-((3S)-3-cyano-3-cyclopropyl-2-oxopyrrolidin-1-yl)-N-(3-(1-cyclopropyl-1H-pyrazol-4-yl)-5-fluorobenzyl)-6-methylpyridine-2-carboxamide]: the inhibition at 0.3 µM in assay [1] was determined as 100%. Also, the inhibition at 1 µM in assay [2] amounted to 98%.
The like results for `Cc1cc(N2CC[C@@](C#N)(C3CC3)C2=O)cc(C(=O)NCc2cc(Cl)cc(-c3cnn(C)c3)c2)n1` [Example 216, N-(3-chloro-5-(1-methyl-1H-pyrazol-4-yl)benzyl)-4-((3S)-3-cyano-3-cyclopropyl-2-oxopyrrolidin-1-yl)-6-methylpyridine-2-carboxamide] were, in that order, 101% and 89%.
For `O=C(NCc1ccccc1Cl)c1ncnc2nc(C3CCCC3)[nH]c12` [Example 1, N-(2-chlorobenzyl)-8-cyclopentyl-7H-purine-6-carboxamide], in that order: 98% and 60%.
The like results for `Cc1cn(-c2cc(F)cc(CNC(=O)c3ncnc4nc(C5CCCC5)n(C)c34)c2)nc1C` [Example 56, 8-cyclopentyl-N-(3-(3,4-dimethyl-1H-pyrazol-1-yl)-5-fluorobenzyl)-7-methyl-7H-purine-6-carboxamide] were, in that order, 102% and 99%.
As for `Cc1cc(N2CC[C@@](C#N)(C3CC3)C2=O)cc(C(=O)NCc2cc(F)cc(-c3ccc(=O)n(C)c3)c2)n1` [Example 169, 4-((3S)-3-cyano-3-cyclopropyl-2-oxopyrrolidin-1-yl)-N-(3-fluoro-5-(1-methyl-6-oxo-1,6-dihydropyridin-3-yl)benzyl)-6-methylpyridine-2-carboxamide], the inhibition at 0.3 µM in assay [1] stood at 100%. In addition, the inhibition at 1 µM in assay [2] was determined as 98%.
As for `Cn1cc(-c2cc(F)c(F)c(CNC(=O)c3ncnc4nc(C5CCCC5)n(C)c34)c2)cn1` [Example 5, 8-cyclopentyl-N-(2,3-difluoro-5-(1-methyl-1H-pyrazol-4-yl)benzyl)-7-methyl-7H-purine-6-carboxamide], the inhibition at 0.3 µM in assay [1] was 102%. The inhibition at 1 µM in assay [2] was found to be 98%.
For `COc1cc(-c2cc(F)cc(CNC(=O)c3nccc4nc(C5CCCC5)n(C)c34)c2)ccn1` [Example 96, 2-cyclopentyl-N-(3-fluoro-5-(2-methoxypyridin-4-yl)benzyl)-3-methyl-3H-imidazo[4,5-c]pyridine-4-carboxamide], in that order: 101% and 95%.
Take `Cc1cc(N2CCC3(CCC3)C2=O)cc(C(=O)NCc2cc(F)cc(-c3cnn(C)c3)c2)n1` [Example 232, N-(3-fluoro-5-(1-methyl-1H-pyrazol-4-yl)benzyl)-6-methyl-4-(5-oxo-6-azaspiro[3.4]oct-6-yl)pyridine-2-carboxamide]: the inhibition at 0.3 µM in assay [1] amounted to 100%. The inhibition at 1 µM in assay [2] was found to be 64%.
The like results for `Cn1cc(-c2cc(F)cc(CNC(=O)c3nccc4nc(C5CCCC5)n(CCO)c34)c2)cn1` [Example 115, 2-cyclopentyl-N-(3-fluoro-5-(1-methyl-1H-pyrazol-4-yl)benzyl)-3-(2-hydroxyethyl)-3H-imidazo[4,5-c]pyridine-4-carboxamide] were, in that order, 101% and 94%.
For `Cn1cc(-c2cc(F)cc(CNC(=O)c3nccc4nc(C5CCCC5)n(C)c34)c2)nn1` [Example 91, 2-cyclopentyl-N-(3-fluoro-5-(1-methyl-1H-1,2,3-triazol-4-yl)benzyl)-3-methyl-3H-imidazo[4,5-c]pyridine-4-carboxamide], in that order: 101% and 98%.
On to `Cn1cc2c(CNC(=O)c3ncnc4nc(C5CCCC5)[nH]c34)cccc2n1` [Example 10, 8-cyclopentyl-N-((2-methyl-2H-indazol-4-yl)methyl)-7H-purine-6-carboxamide], for which the inhibition at 0.3 µM in assay [1] amounted to 97%. In assay [2], the inhibition at 1 µM was determined as 55%.
The like results for `Cc1cc(-c2cc(F)cc(CNC(=O)c3cc(N4CC[C@@](C#N)(C5CC5)C4=O)cc(C)n3)c2)cnn1` [Example 207, 4-((3S)-3-cyano-3-cyclopropyl-2-oxopyrrolidin-1-yl)-N-(3-fluoro-5-(6-methylpyridazin-4-yl)benzyl)-6-methylpyridine-2-carboxamide] were, in that order, 96% and 59%.
